In US6737383B1, “Herbicidal oxadiazolidines” (priority 1999, dated 2004):

Legend:
pigweed = assay: Test B pre/postemergence pigweed; format: in vivo, Amaranthus retroflexus
Outline: (§1)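 Test chemicals in a non-phytotoxic solvent mixture with surfactant were sprayed preemergence onto planted seeds and postemergence onto plants 2 to 18 cm tall (1- to 4-leaf stage). After twelve to sixteen days in a greenhouse, injury was visually rated against untreated controls from 0 (no effect) to 10 (complete control).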

rape = assay: Test B pre/postemergence rape; format: in vivo, Brassica napus
Outline: as §1

soybean = assay: Test B pre/postemergence soybean; format: in vivo, Glycine max
Outline: as §1

sugar beet = assay: Test B pre/postemergence sugar beet; format: in vivo, Beta vulgaris
Outline: as §1

bermuda-grass = assay: Test D bermudagrass; format: in vivo, Cynodon dactylon; conditions: Preemergence, 0 to 100 scale
Outline: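 Greenhouse pots, seeds in sandy loam; compounds formulated in non-phytotoxic solvent with surfactant; preemergence treatments went on the soil surface within one day of planting. Injury rated visually 14 to 21 days after application on a 0 (none) to 100 (complete control) scale.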

winter wheat [1] = assay: Test E winter wheat; format: in vivo, Triticum aestivum; conditions: Postemergence
Outline: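 Greenhouse-grown plants are treated (postemergence: 1- to 4-leaf stage, sandy loam/potting mix 60:40), then evaluated visually versus untreated controls some 21 to 28 days later.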

blackgrass = assay: Test E blackgrass; format: in vivo, Alopecurus myosuroides; conditions: Preemergence
green foxtail [2] = assay: Test E green foxtail; format: in vivo, Setaria viridis; conditions: Preemergence
Italian ryegrass = assay: Test E Italian ryegrass; format: in vivo, Lolium multiflorum; conditions: Preemergence
winter wheat [3] = assay: Test E winter wheat; format: in vivo, Triticum aestivum; conditions: Preemergence
wild oat = assay: Test E wild oat; format: in vivo, Avena fatua; conditions: Preemergence
winter barley = assay: Test E winter barley; format: in vivo, Hordeum vulgare; conditions: Preemergence
guineagrass = assay: Test D guineagrass; format: in vivo, Panicum maximum; conditions: Postemergence, 0 to 100 scale
Spanishneedles = assay: Test D Spanishneedles; format: in vivo, Bidens bipinnata; conditions: Postemergence, 0 to 100 scale
Green foxtail [4] = assay: Test D green foxtail; format: in vivo; conditions: Postemergence, 0 to 100 scale, 0 no injury, 100 complete control
Green foxtail [5] = assay: Test D green foxtail; format: in vivo; conditions: Postemergence, 0 to 100 scale, 0 no injury, 100 complete control; remark: listed apart in the source
[6] = Postemergence, Rate 125 g/ha, scale of 0 to 10 where 0 is no effect and 10 is complete control
[7] = Preemergence, Rate 62 g/ha, scale 0 to 10 (0 no effect, 10 complete control)
[8] = Preemergence, Rate 125 g/ha, scale 0 to 10 (0 no effect, 10 complete control)
[9] = Preemergence, Rate 250 g/ha, scale of 0 to 10 where 0 is no effect and 10 is complete control
[10] = Preemergence, Rate 500 g/ha, scale 0 to 10 (0 no effect, 10 complete control)
[11] = Rate 62 g/ha, Postemergence, scale of 0 to 10 where 0 is no effect and 10 is complete control
[12] = Rate 250 g/ha, Postemergence, scale 0 to 10, 0 is no effect, 10 is complete control
[13] = Rate 500 g/ha, Postemergence, scale 0 to 10, 0 no effect, 10 complete control
[14] = Rate 16 g/ha, 0 no injury, 100 complete control
[15] = Rate 32 g/ha, 0 no injury, 100 complete control
[16] = Rate 64 g/ha, 0 no injury, 100 complete control
[17] = Rate 125 g/ha, 0 no injury, 100 complete control
[18] = Rate 31 g/ha, 0 to 100 scale, 0 no effect, 100 complete control
[19] = Rate 62 g/ha, 0 to 100 scale, 0 no effect, 100 complete control
[20] = Rate 125 g/ha, 0 to 100 scale (0 no effect, 100 complete control)
[21] = Postemergence, Rate 125 g/ha, scale 0 to 10, 0 is no effect, 10 is complete control
[22] = Preemergence, Rate 500 g/ha, scale of 0 to 10 where 0 is no effect and 10 is complete control

What does the source list for `CCn1c(=O)on(C(=O)N(c2ccc(F)cc2)C(C)C)c1=O` [Compound 107]?
Redroot pigweed plant response rating (pigweed; [6]): 0; Redroot pigweed plant response rating (pigweed; [7]): 10; Plant response rating, Redroot pigweed (pigweed; [8]): 10; Plant response rating, Redroot pigweed (pigweed; [9]): 10; Redroot pigweed plant response rating (pigweed; [10]): 10; Redroot pigweed plant response rating (pigweed; [11]): 0; Plant response rating, Redroot pigweed (pigweed; [12]): 5; Redroot pigweed plant response rating (pigweed; [13]): 8; Rape plant response rating (rape; [6]): 2; Rape plant response rating (rape; Postemergence, Rate 250 g/ha, scale 0 to 10, 0 no effect, 10 complete control): 3; Rape plant response rating (rape; [7]): 3; Plant response rating, Rape (rape; [8]): 8; Plant response rating, Rape (rape; [9]): 9; Rape plant response rating (rape; [10]): 10; Rape plant response rating (rape; [11]): 0; Rape plant response rating (rape; [13]): 8; Soybean plant response rating (soybean; [6]): 4; Soybean plant response rating (soybean; [7]): 0; Plant response rating, Soybean (soybean; [8]): 3; Plant response rating, Soybean (soybean; [9]): 5; Soybean plant response rating (soybean; [10]): 8; Soybean plant response rating (soybean; [11]): 3; Plant response rating, Soybean (soybean; [12]): 4; Soybean plant response rating (soybean; [13]): 5; Sugarbeets plant response rating (sugar beet; [6]): 2; Sugarbeets plant response rating (sugar beet; [7]): 4; Sugarbeets plant response rating (0 to 10 scale) (sugar beet; Preemergence, Rate 125 g/ha, 0 is no effect, 10 is complete control): 7; Plant response rating, Sugarbeets (sugar beet; [9]): 10; Sugarbeets plant response rating (sugar beet; [10]): 10; Sugarbeets plant response rating (sugar beet; [11]): 0; Plant response rating, Sugarbeets (sugar beet; [12]): 5; Sugarbeets plant response rating (sugar beet; [13]): 7; Plant response rating, Bermudagrass (bermuda-grass; [14]): 85; Plant response rating, Bermudagrass (bermuda-grass; [15]): 100; Plant response rating, Bermudagrass (bermuda-grass; [16]): 100; Plant response rating, Bermudagrass (bermuda-grass; [17]): 100; Plant response rating, Bermudagrass (bermuda-grass; Rate 250 g/ha): 100; Plant response rating, Bermudagrass (bermuda-grass; Rate 500 g/ha): 100; Plant response rating, Wheat (winter) (winter wheat [1]; [18]): 50; Plant response rating, Wheat (winter) (winter wheat [1]; Rate 62 g/ha, 0 to 100 scale): 40; Plant response rating, Wheat (winter) (winter wheat [1]; Rate 125 g/ha, 0 to 100 scale): 30; Plant response rating, Wheat (winter) (winter wheat [1]; Rate 250 g/ha, 0 to 100 scale (0 no effect, 100 complete control)): 0; Plant response rating, Blackgrass (blackgrass; [18]): 30; Plant response rating, Blackgrass (blackgrass; [19]): 60; Plant response rating, Blackgrass (blackgrass; [20]): 85; Plant response rating, Blackgrass (blackgrass; Rate 250 g/ha, 0 to 100 scale): 80; Plant response rating, Green foxtail (green foxtail [2]; [18]): 55; Plant response rating, Green foxtail (green foxtail [2]; [19]): 80; Plant response rating, Green foxtail (green foxtail [2]; [20]): 100; Plant response rating, Green foxtail (green foxtail [2]; Rate 250 g/ha, 0 to 100 scale): 95; Plant response rating, I. Ryegrass (Italian ryegrass; [18]): 40; Plant response rating, I. Ryegrass (Italian ryegrass; [19]): 55; Plant response rating, I. Ryegrass (Italian ryegrass; [20]): 98; Plant response rating, I. Ryegrass (Italian ryegrass; Rate 250 g/ha, 0 to 100 scale): 95; Plant response rating, Wheat (winter) (winter wheat [3]; [18]): 0; Plant response rating, Wheat (winter) (winter wheat [3]; [19]): 50; Plant response rating, Wheat (winter) (winter wheat [3]; [20]): 30; Plant response rating, Wheat (winter) (winter wheat [3]; Rate 250 g/ha, 0 to 100 scale): 40; Plant response rating, Wild oat (wild oat; [18]): 20; Plant response rating, Wild oat (wild oat; [19]): 50; Plant response rating, Wild oat (wild oat; [20]): 60; Plant response rating, Barley (winter) (winter barley; [18]): 10; Plant response rating, Barley (winter) (winter barley; [19]): 20; Plant response rating, Barley (winter) (winter barley; [20]): 20; Plant response rating, Barley (winter) (winter barley; Rate 250 g/ha, 0 to 100 scale): 15

Which results are given for `COCC(C)n1c(=O)on(C(=O)N(c2ccc(F)cc2F)C(C)C)c1=O` (centres unmarked) [Compound 352]?
Plant response rating, Redroot pigweed (pigweed; [21]): 3; Redroot pigweed plant response rating (0 to 10 scale) (pigweed; Preemergence, Rate 125 g/ha): 3; Redroot pigweed plant response rating (pigweed; [9]): 10; Redroot pigweed plant response rating (pigweed; [22]): 10; Redroot pigweed plant response rating (pigweed; [11]): 0; Plant response rating, Redroot pigweed (pigweed; [13]): 4; Plant response rating, Rape (rape; [21]): 0; Plant response rating, Rape (rape; [7]): 0; Rape plant response rating (0 to 10 scale) (rape; Preemergence, Rate 125 g/ha): 0; Rape plant response rating (rape; [9]): 0; Rape plant response rating (rape; [22]): 7; Rape plant response rating (rape; [11]): 0; Plant response rating, Rape (rape; [13]): 0; Plant response rating, Soybean (soybean; [21]): 2; Plant response rating, Soybean (soybean; [7]): 0; Soybean plant response rating (0 to 10 scale) (soybean; Preemergence, Rate 125 g/ha): 0; Soybean plant response rating (soybean; [9]): 0; Soybean plant response rating (soybean; [22]): 2; Soybean plant response rating (soybean; [11]): 2; Plant response rating, Soybean (soybean; [13]): 4; Plant response rating, Sugarbeets (sugar beet; [21]): 0; Plant response rating, Sugarbeets (sugar beet; [7]): 2; Sugarbeets plant response rating (0 to 10 scale) (sugar beet; Preemergence, Rate 125 g/ha): 3; Sugarbeets plant response rating (sugar beet; [9]): 3; Sugarbeets plant response rating (sugar beet; [22]): 7; Sugarbeets plant response rating (sugar beet; [11]): 0; Plant response rating, Sugarbeets (sugar beet; [13]): 0; Plant response rating, Guineagrass (guineagrass; [14]): 0; Plant response rating, Guineagrass (guineagrass; [15]): 0; Guineagrass plant response rating (guineagrass; [16]): 20; Plant response rating, Guineagrass (guineagrass; [16]): 60; Plant response rating, Guineagrass (guineagrass; [17]): 80; Plant response rating, Guineagrass (guineagrass; Rate 250 g/ha): 100; Plant response rating, Spanishneedles (Spanishneedles; [14]): 0; Plant response rating, Spanishneedles (Spanishneedles; [15]): 0; Spanishneedles plant response rating (Spanishneedles; [16]): 0; Spanishneedles plant response rating (Spanishneedles; [17]): 40; Plant response rating, Spanishneedles (Spanishneedles; Rate 250 g/ha): 30; Green foxtail plant response rating (Green foxtail [4]; Rate 64 g/ha): 100; Green foxtail plant response rating (Green foxtail [4]; Rate 125 g/ha): 100; Plant response rating, Green foxtail (Green foxtail [5]; Rate 16 g/ha): 0; Plant response rating, Green foxtail (Green foxtail [5]; Rate 32 g/ha): 100
